Active and inactive are the calls of the source. No rule for the calls is given here.
system: MTT cytotoxicity, absorbance 620 nm; test: cell viability loss, MTT reduction – absorbance, cytotoxicity control for NOD2-RIPK2 interaction inhibitor project, late-stage follow-up (AID 652169)

Row | Structure (SMILES) | IC50
1 | Cc1nc([N+](=O)[O-])c(Br)n1Cc1ccc(Cl)c(Cl)c1 | > 10 µM (inactive)
2 | Cc1cc(S(=O)(=O)N2CCCCCC2)ccc1F | > 10 µM (inactive)
3 | O=S(=O)(c1ccccc1)N1CCCCCC1 | > 10 µM (inactive)
4 | COc1ccc(C(C[N+](=O)[O-])n2nc(C)cc2C)cc1 (stereo unspecified) | > 10 µM (inactive)
5 | Cc1nc([N+](=O)[O-])c(Br)n1Cc1ccccc1 | > 10 µM (inactive)
6 | O=[N+]([O-])c1cc(S(=O)(=O)N2CCCCCC2)ccc1F | > 10 µM (inactive)
7 | Cc1ncc([N+](=O)[O-])n1Cc1ccc(Cl)c(Cl)c1 | > 10 µM (inactive)
8 | O=S(=O)(c1ccc(F)cc1)N1CCCCCC1 | > 10 µM (inactive)
9 | Cc1ccc(S(=O)(=O)N2CCCCCC2)cc1[N+](=O)[O-] | > 10 µM (inactive)
10 | Cc1ccc(C(C[N+](=O)[O-])n2nc(C)cc2C)cc1 (stereo unspecified) | > 10 µM (inactive)
11 | O=[N+]([O-])c1cccc(S(=O)(=O)N2CCCCCC2)c1 | > 10 µM (inactive)

Source: PubChem BioAssay AID652169 (The Scripps Research Institute Molecular Screening Center, 2013)
